Reference: patent US9580390B2, “Indazole compounds as kinase inhibitors and method of treating cancer with same” (University Health Network, priority 2011, dated 2017)

Assays:
[1] = tested on: ovarian cancer cells (PA-1); assay: Cancer cell line growth inhibition (SRB assay); format: cell-based; conditions: Homo sapiens, PA-1; read-out: Cancer Cell Line GI50 Range PA-1
human TTK = biological target: T1, human TTK (Homo sapiens, UniProt P33981); assay: TTK inhibition assay (indirect ELISA); format: biochemical; conditions: read-out: TTK IC50 Range
T1 construct: amino terminal GST fusion of full length human TTK; purchased Invitrogen
T1 sequence (P33981 1-857): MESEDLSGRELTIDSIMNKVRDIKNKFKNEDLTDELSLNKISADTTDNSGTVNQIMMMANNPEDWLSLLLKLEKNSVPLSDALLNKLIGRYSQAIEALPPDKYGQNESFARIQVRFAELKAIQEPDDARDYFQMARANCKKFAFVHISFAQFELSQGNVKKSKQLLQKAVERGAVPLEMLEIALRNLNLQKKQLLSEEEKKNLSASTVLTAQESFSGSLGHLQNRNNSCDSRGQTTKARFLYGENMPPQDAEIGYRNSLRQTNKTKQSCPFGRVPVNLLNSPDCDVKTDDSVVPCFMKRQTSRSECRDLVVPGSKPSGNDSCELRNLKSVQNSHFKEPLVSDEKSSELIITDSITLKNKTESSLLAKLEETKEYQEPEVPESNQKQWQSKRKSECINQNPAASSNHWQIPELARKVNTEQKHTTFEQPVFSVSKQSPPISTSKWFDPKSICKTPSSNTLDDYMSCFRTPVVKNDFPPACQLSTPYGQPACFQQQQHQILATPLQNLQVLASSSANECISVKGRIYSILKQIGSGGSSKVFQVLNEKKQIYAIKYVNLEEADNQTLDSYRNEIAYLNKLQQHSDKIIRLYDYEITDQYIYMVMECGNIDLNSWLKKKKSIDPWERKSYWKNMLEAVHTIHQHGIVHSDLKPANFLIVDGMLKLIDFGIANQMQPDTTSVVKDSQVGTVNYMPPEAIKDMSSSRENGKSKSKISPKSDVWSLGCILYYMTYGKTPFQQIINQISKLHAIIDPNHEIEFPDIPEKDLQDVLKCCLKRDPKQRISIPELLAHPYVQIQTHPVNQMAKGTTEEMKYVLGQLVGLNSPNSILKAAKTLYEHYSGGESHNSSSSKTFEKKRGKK

TICs (Ovarian 2393A) = assay: Ovarian tumor-initiating cell growth inhibition (Alamar Blue); format: cell-based; conditions: 144 h; Ovarian 2393A TICs, 6 days; read-out: Tumor Initiating Cell GI50 Range Ovarain 2393A
Breast cancer cells = assay: Cancer cell line growth inhibition (SRB assay); format: cell-based; conditions: Homo sapiens; MDA-MB-468; read-out: Cancer Cell Line GI50 Range MDA-MB-468
[2] = tested on: colon cancer cells (HCT116); assay: Cancer cell line growth inhibition (SRB assay); format: cell-based; conditions: Homo sapiens, HCT-116; read-out: Cancer Cell Line GI50 Range HCT116
TICs (Colon 12) = assay: Colon tumor-initiating cell growth inhibition (Alamar Blue); format: cell-based; conditions: 216 h; Colon 12 TICs, 9 days; read-out: Tumor Initiating Cell GI50 Range Colon 12

Structure (SMILES)	GI50 [1]	IC50 (human TTK)	GI50 (TICs (Ovarian 2393A))	GI50 (Breast cancer cells)	GI50 [2]	GI50 (TICs (Colon 12))
CN1[C@@H]2CCC[C@H]1C[C@@H](Oc1ccc(-c3n[nH]c4ccc(C(=O)NC(c5ccccn5)C5CCCC5)cc34)cc1)C2 (stereo partly drawn) [Example A391, N-(cyclopentyl(pyridin-2-yl)methyl)-3-(4-(((1R,3R,5S)-9-methyl-9-azabicyclo[3.3.1]nonan-3-yl)oxy)phenyl)-1H-indazole-5-carboxamide]	< 100 nM	< 100 nM	100 to 500 nM	100 to 500 nM	< 100 nM	< 100 nM
CC(C)C(NC(=O)c1ccc2[nH]nc(-c3ccc(O[C@H]4C[C@H]5CCC[C@@H](C4)N5C)cc3)c2c1)c1ccccc1Cl (stereo partly drawn) [Example A394, N-(1-(2-chlorophenyl)-2-methylpropyl)-3-(4-(((lR,3R,5S)-9-methyl-9-azabicyclo[3.3.1]nonan-3-yl)oxy)phenyl)-1H-indazole-5-carboxamide]	100 to 500 nM	< 100 nM	100 to 500 nM	100 to 500 nM	< 100 nM	100 to 500 nM
CC(C)C(NC(=O)c1ccc2[nH]nc(-c3ccc(OC4CC5CCC(C4)N5C)cc3)c2c1)c1ccccn1 (stereo not drawn) [Example A395, N-(2-methyl-1-(pyridin-2-yl)propyl)-3-(4-((8-methyl-8-azabicyclo [3.2.1]octan-3-yl)oxy)phenyl)-1H-indazole-5-carboxamide]	< 100 nM	< 100 nM	100 to 500 nM	< 100 nM	< 100 nM	< 100 nM
O=C(N[C@@H](c1ccccn1)C1CCCC1)c1ccc2[nH]nc(-c3ccc(N4CCN(C5COC5)CC4)cc3)c2c1 [Example A411, (R)-N-(cyclopentyl(pyridin-2-yl)methyl)-3-(4-(4-(oxetan-3-yl)piperazin-1-yl)phenyl)-1H-indazole-5-carboxamide]	< 100 nM	< 100 nM	< 100 nM	< 100 nM	< 100 nM	< 100 nM
O=C(N[C@H](c1ccccn1)C1CCCC1)c1ccc2[nH]nc(-c3ccc(N4C5COCC4CC(O)C5)cc3)c2c1 (stereo partly drawn) [Example A420, N-((S)-cyclopentyl(pyridin-2-yl)methyl)-3-(4-((1R,5S,7R)-7-hydroxy-3-oxa-9-azabicyclo[3.3.1]nonan-9-yl)phenyl)-1H-indazole-5-carboxamide]	< 100 nM	< 100 nM	< 100 nM	< 100 nM	< 100 nM	< 100 nM
CC(C)[C@H](NC(=O)c1ccc2[nH]nc(-c3ccc(N4C5COCC4CC(O)C5)cc3)c2c1)c1ccccc1Cl (stereo partly drawn) [Example A421, N((S)-1-(2-chlorophenyl)-2-methylpropyl)-3-(4-((1R,5S,7R)-7-hydroxy-3-oxa-9-azabicyclo [3.3.1]nonan-9-yl)phenyl)-1H-indazole-5-carboxamide]	< 100 nM	< 100 nM	< 100 nM	< 100 nM	< 100 nM	< 100 nM
O=C(NCC1(N2CCOCC2)CCCCC1)c1ccc2[nH]nc(-c3ccc(N4CCN(CCO)CC4)cc3)c2c1 [Example A459, 3-(4-(4-(2-hydroxyethyl)piperazin-1-yl)phenyl)-N-((1-morpholinocyclohexyl)methyl)-1H-indazole-5-carboxamide]	< 100 nM	< 100 nM	100 to 500 nM	100 to 500 nM	< 100 nM	100 to 500 nM
CN1[C@@H]2CC[C@H]1C[C@@H](Oc1ccc(-c3n[nH]c4ccc(C(=O)NCC5(c6ccccc6)CCOCC5)cc34)cc1)C2 [Example A484, 3-(4-(((1R,3R,5S)-8-methyl-8-azabicyclo[3.2.1]octan-3-yl)oxy)phenyl)-N-((4-phenyltetrahydro-2H-pyran-4-yl)methyl)-1H-indazole-5-carboxamide]	< 100 nM	< 100 nM	100 to 500 nM	100 to 500 nM	< 100 nM	100 to 500 nM
CC1=CC2(CCN(C)CC2)Oc2ccc(-c3n[nH]c4ccc(C(=O)NCC5(N6CCOCC6)CCCCC5)cc34)cc21 [Example A489, 3-(1′,4-dimethylspiro[chromene-2,4′-piperidin]-6-yl)-N-((1-morpholinocyclohexyl)methyl)-1H-indazole-5-carboxamide]	< 100 nM	< 100 nM	< 100 nM	< 100 nM	< 100 nM	< 100 nM
O=C(NCC1(c2ccccc2)CCOCC1)c1ccc2[nH]nc(-c3ccc(N4[C@@H]5CC[C@H]4COC5)cc3)c2c1 [Example A502, 3-(4-((1R,5S)-3-oxa-8-azabicyclo[3.2.1]octan-8-yl)phenyl)-N-((4-phenyltetrahydro-2H-pyran-4-yl)methyl)-1H-indazole-5-carboxamide]	< 100 nM	< 100 nM	< 100 nM	< 100 nM	< 100 nM	< 100 nM
O=C(NCC1(N2CCOCC2)CCCCC1)c1ccc2[nH]nc(-c3ccc(N4CCNCC4)cc3)c2c1 [Example A505, N-((1-morpholinocyclohexyl)methyl)-3-(4-(piperazin-1-yl)phenyl)-1H-indazole-5-carboxamide]	< 100 nM	< 100 nM	100 to 500 nM	100 to 500 nM	< 100 nM	> 500 nM
O=C(NCC1(N2CCOCC2)CCCCC1)c1ccc2[nH]nc(-c3ccc(N4[C@@H]5CC[C@H]4C[C@@H](O)C5)cc3)c2c1 [Example A508, 3-(4-((1R,3R,5S)-3-hydroxy-8-azabicyclo[3.2.1]octan-8-yl)phenyl)-N-((1-morpholinocyclohexyl)methyl)-1H-indazole-5-carboxamide]	< 100 nM	< 100 nM	< 100 nM	< 100 nM	< 100 nM	< 100 nM
